Patent US9790169B2, “IDO inhibitors” (BRISTOL-MYERS SQUIBB COMPANY, priority 2015, dated 2017)
pIC50: −log10 of the molar value.

Biological target: human IDO1 (Homo sapiens, UniProt P14902)
Assay: Assessment of human IDO-1 inhibitory activity in Hela cells (Interferon-gamma stimulated HeLa cells, Ehrlich reagent, absorbance 490 nm)
Format: cell-based
Design: endogenous in cells; host or cells: HeLa cells stimulated with interferon-gamma
Conditions: Hela Human IDO-1 cellular assay
Protocol: Exemplary compounds were tested for inhibition of IDO activity.
Assessment of Human IDO-1 Inhibitory Activity in Hela Cells
HeLa cells were seeded at 20,000 cells per 30 μL per well with RPMI/phenol red free media containing 10% FBS in a 384-well tissue culture plate (black with clear bottoms). 50 nL of compound was added to cells and incubated at 37° C. for one hour. 20 μL of the recombinant human Interferon-gamma (R&D System, Cat. #285-IF, at final concentration of 10 ng/ml) or recombinant murine Interferon-gamma (PEPROTECH® Inc., Cat. #315-05, final concentration of 5 ng/ml) was added to activate IDO signaling. The cells were incubated for 18 hours in 37° C. incubator with 5% CO2.
Compound treatment was stopped by adding 5 μl trichloroacetic acid to a final concentration of 3%. Subsequently, the cell plate was further incubated at 50° C. for 30 minute. An equal volume supernatant (20 μL) and 2% (w/v) Ehrlich reagent (4-dimethylaminobenzaldehyde) in glacial acetic acid were mixed in a new clear bottom 384-well plate. This plate was incubated at room temperature for 30 minutes. Absorbance at 490 nm was measured on Envision plate reader.
Compound IC50 values were calculated using counts from unstimulated (no INF-gamma treatment) wells as 100% inhibition. INF-gamma treatment without compound treatment as 0% inhibition.

human IDO1, sequence (P14902 whole entry): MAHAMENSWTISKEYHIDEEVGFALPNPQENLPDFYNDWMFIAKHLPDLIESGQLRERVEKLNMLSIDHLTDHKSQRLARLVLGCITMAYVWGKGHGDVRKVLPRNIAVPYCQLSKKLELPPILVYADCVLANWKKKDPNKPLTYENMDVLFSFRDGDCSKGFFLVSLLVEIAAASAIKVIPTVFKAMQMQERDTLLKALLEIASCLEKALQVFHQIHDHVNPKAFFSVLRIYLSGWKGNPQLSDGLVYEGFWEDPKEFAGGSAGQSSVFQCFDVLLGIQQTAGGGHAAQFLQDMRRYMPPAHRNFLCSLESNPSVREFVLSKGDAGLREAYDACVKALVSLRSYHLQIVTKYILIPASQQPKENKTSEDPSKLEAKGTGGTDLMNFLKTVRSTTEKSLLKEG

Row | Structure (SMILES) | pIC50
1 | CCOc1ncc(Nc2cc(C(CC)CC(=O)O)ccc2N2CCNCC2)cn1 (single isomer, unassigned) [Example 672, 3-(3-((2-Ethoxypyrimidin-5-yl)amino)-4-(piperazin-1-yl)phenyl)pentanoic acid] | < 7.30
2 | CCN(c1ccc([C@H](COC)CC(=O)O)cc1Nc1ccc(C(F)(F)F)cc1)C1CCOCC1 [Example 401] | > 8.30
3 | CCc1ncc(Nc2cc([C@H](CC)CC(=O)O)ccc2N(CC)C2CCOCC2)cn1 (single isomer, unassigned) [Example 1364] | > 8.30
4 | CCN(c1cc(F)c(C(COC)CC(=O)O)cc1Nc1ccc(C#N)c(F)c1)C1CCOCC1 (single isomer, unassigned) [Example 846, 3-(5-((4-cyano-3-fluorophenyl)amino)-4-(ethyl (tetrahydro-2H-pyran-4-yl)amino)-2-fluorophenyl)-4-methoxybutanoic acid] | > 8.30
5 | CCOc1ncc(Nc2cc([C@H](COC)CC(=O)O)ccc2N2CCOCC2CC)cn1 (single isomer, unassigned) [Example 1291] | < 7.30
6 | COCC(CC(=O)O)c1ccc(N(C)C2CCOCC2)c(Nc2ccc(C#N)cn2)c1 (single isomer, unassigned) [Example 874, 3-(3-((5-cyanopyridin-2-yl)amino)-4-(methyl (tetrahydro-2H-pyran-4-yl)amino)phenyl)-4-methoxybutanoic acid] | > 8.30
7 | CCCN(c1ccc([C@H](CC)CC(=O)O)cc1Nc1cnc(OC)nc1)C1CCOCC1 (single isomer, unassigned) [Example 551] | > 8.30
8 | COCC(CC(=O)O)c1cc(F)c(N(CC(C)C)CC(C)C)c(Nc2ccc3c(c2)OC(F)(F)O3)c1 (single isomer, unassigned) [Example 924, 3-(3-((2,2-difluorobenzo[d] [1,3]dioxol-5-yl)amino)-4-(diisobutylamino)-5-fluorophenyl)-4-methoxybutanoic acid] | > 7.30
9 | CCN(c1ccc([C@@H](COC(C)C)CC(=O)O)cc1Nc1ccc(C#N)cc1)C1CCOCC1 (single isomer, unassigned) [Example 324] | > 7.30
10 | COCC(CC(=O)O)c1ccc(N2CCOC[C@H]2C(C)C)c(Nc2ccc(Cl)cc2)c1 (single isomer, unassigned) [Example 913] | > 8.30
11 | CCOc1ncc(Nc2cc(C(CC)CC(=O)O)ccc2N2CCOCC2)cn1 (single isomer, unassigned) [Example 7 Enantiomer 2, 3-(3-((2-Ethoxypyrimidin-5-yl)amino)-4-morpholinophenyl)pentanoic acid] | < 7.30
12 | CCC(CC(=O)O)c1ccc(N2CCN(C(=O)OC)CC2)c(Nc2ccc(C#N)cc2)c1 (single isomer, unassigned) [Example 668 Enantiomer 1, 3-(3-((4-Cyanophenyl)amino)-4-(4-(methoxycarbonyl)piperazin-1-yl)phenyl)pentanoic acid] | < 7.30
13 | CCOc1ccc(Nc2cc([C@@H](CC)CC(=O)O)ccc2N(CC)C2CCOCC2)nn1 (single isomer, unassigned) [Example 467] | > 7.30
14 | CCC(CC(=O)O)c1ccc(N(C)C2CCOCC2)c(Nc2ccc(C#N)cc2)c1 (single isomer, unassigned) [Example 870, 3-(3-((4-Cyanophenyl)amino)-4-(methyl(tetrahydro-2H-pyran-4-yl)amino)phenyl)pentanoic acid] | > 8.30
15 | CCCN(c1ccc([C@H](CC)CC(=O)O)cc1Nc1cnc(OCC2CC2)nc1)C1CCOCC1 (single isomer, unassigned) [Example 554] | > 8.30
16 | COCCN(c1ccc(C(COC)CC(=O)O)cc1Nc1ccc(F)cc1)C1CCOCC1 (single isomer, unassigned) [Example 258, 3-(3-((4-fluorophenyl)amino)-4-((2-methoxyethyl)(tetrahydro-2H-pyran-4-yl)amino)phenyl)-4-methoxybutanoic acid] | > 7.30
17 | CCC(CC(=O)O)c1cc(F)c(N(CC)C2CCOCC2)c(Nc2cnc(OC)nc2)c1 (single isomer, unassigned) [Example 140, 3-(4-(ethyl(tetrahydro-2H-pyran-4-yl)amino)-3-fluoro-5-((2-methoxypyrimidin-5-yl)amino)phenyl) pentanoic acid] | > 8.30
18 | CCC(CC(=O)O)c1ccc(N(CC)C2CCCOC2)c(Nc2cnc(OC)nc2)c1 (single isomer, unassigned) [Example 65, 3-(4-(ethyl(tetrahydro-2H-pyran-3-yl)amino)-3-((2-methoxypyrimidin-5-yl)amino)phenyl)pentanoic acid] | > 8.30
19 | CCN(c1ccc([C@@H](COC)CC(=O)O)cc1Nc1ccc(C#N)c(OCC(F)F)c1)C1CCOCC1 (single isomer, unassigned) [Example 371] | > 7.30

Row | Structure (SMILES) | pIC50
20 | COCC(CC(=O)O)c1ccc(N2C[C@@H](C)O[C@@H](C)C2)c(Nc2ccc(Cl)cc2)c1 (single isomer, unassigned) [Example 603] | < 7.30
21 | CCN(c1ccc([C@@H](COC)CC(=O)O)cc1Nc1ncc(F)cn1)C1CCOCC1 (single isomer, unassigned) [Example 359] | < 7.30
22 | CC(CC(=O)O)c1ccc(N2C[C@@H](C)O[C@@H](C)C2)c(NC(=O)Nc2ccc(C#N)cc2)c1 (single isomer, unassigned) [Example 750] | < 7.30
23 | CCN(c1ccc([C@@H](COC)CC(=O)O)cc1Nc1cccc(C#N)c1)C1CCOCC1 (single isomer, unassigned) [Example 368] | > 7.30
24 | CCOc1ncc(Nc2cc([C@@H](COC)CC(=O)O)ccc2N2CCOCC2CC)cn1 (single isomer, unassigned) [Example 1285] | < 7.30
25 | CCN(c1ccc([C@@H](COC)CC(=O)O)cc1Nc1cccc(OC(F)(F)C(F)F)c1)C1CCOCC1 (single isomer, unassigned) [Example 360] | < 7.30
26 | CCN(c1ccc(C(CC(=O)O)C2CC2)cc1Nc1ccc(Cl)cc1)C1CCOCC1 (single isomer, unassigned) [Example 33 Enantiomer 1, 3-(3-((4-Chlorophenyl)amino)-4-(ethyl(tetrahydro-2H-pyran-4-yl)amino)phenyl)-3-cyclopropylpropanoic acid] | > 8.30
27 | CCCN(c1ccc(C(CC)CC(=O)O)cc1NC(=O)Nc1ccc(C)cc1)C1CCOCC1 (single isomer, unassigned) [Example 557 Enantiomer 2, 3-(4-(Propyl(tetrahydro-2H-pyran-4-yl)amino)-3-(3-(p-tolyl)ureido)phenyl)pentanoic acid] | > 8.30
28 | CCN(c1ccc([C@H](CC(=O)O)C(F)(F)F)cc1NC(=O)Nc1ccc(C#N)cc1)C1CCOCC1 (single isomer, unassigned) [Example 1268] | < 7.30
29 | CCN(c1ccc(C(C)(C)CC(=O)O)cc1Nc1ccc(Cl)cc1)C1CCS(=O)(=O)CC1 [Example 180, 3-(3-((4-chlorophenyl)amino)-4-((1,1-dioxidotetrahydro-2H-thiopyran-4-yl)(ethyl)amino)phenyl)-3-methylbutanoic acid] | > 8.30
30 | CCN(c1ccc(C(C)CC(=O)O)cc1Nc1ccc(C#N)cc1)C1CCOCC1 (single isomer, unassigned) [Example 625, 3-(3-((4-cyanophenyl)amino)-4-(ethyl(tetrahydro-2H-pyran-4-yl)amino)phenyl)butanoic acid] | > 8.30
31 | CCOc1ncc(Nc2cc(C(COC)CC(=O)O)ccc2N2CCC(c3ccccc3)CC2)cn1 (single isomer, unassigned) [Example 1351, 3-(3-((2-ethoxypyrimidin-5-yl)amino)-4-(4-phenylpiperidin-1-yl)phenyl)-4-methoxybutanoic acid] | > 7.30
32 | COCC(CC(=O)O)c1ccc(N(CC2CC2)C2CCOCC2)c(Nc2ccc(C(N)=O)nc2)c1 (single isomer, unassigned) [Example 693, 3-(3-((6-carbamoylpyridin-3-yl)amino)-4-((cyclopropylmethyl) (tetrahydro-2H-pyran-4-yl)amino)phenyl)-4-methoxybutanoic acid] | < 7.30
33 | CC[C@@H](CC(=O)O)c1ccc(N(CC)C2CCOCC2)c(Nc2cnc(N(C)C)nc2)c1 (single isomer, unassigned) [Example 459] | > 7.30
34 | CCOc1ncc(Nc2cc(C(CC)CC(=O)O)ccc2N2CCC(c3ccccc3)CC2)cn1 (single isomer, unassigned) [Example 47 Enantiomer 1, 3-(3-((2-Ethoxypyrimidin-5-yl)amino)-4-(4-phenylpiperidin-1-yl)phenyl)pentanoic acid] | > 8.30
35 | CC[C@H](CC(=O)O)c1ccc(N(CC)C2CCOCC2)c(Nc2ccc(N(C)C)nc2)c1 (single isomer, unassigned) [Example 506] | < 7.30
36 | CCC(CC(=O)O)c1ccc(N2C[C@@H]3C[C@H]2CN3C(=O)OC)c(Nc2ccc(C#N)cc2)c1 (single isomer, unassigned) [Example 449] | > 7.30
37 | C[C@@H]1CN(c2ccc(C(CC(=O)O)C3CC3)cc2Nc2ccc(Cl)cc2)C[C@H](C)O1 (single isomer, unassigned) [Example 244] | > 7.30
38 | CCC(CC(=O)O)c1ccc(N(CC)C2CCS(=O)(=O)CC2)c(Nc2ccc(Cl)cc2)c1 (single isomer, unassigned) [Example 334 Enantiomer 1, 3-(3-((4-Chlorophenyl)amino)-4-((1,1-dioxidotetrahydro-2H-thiopyran-4-yl)(ethyl)amino)phenyl)pentanoic acid] | > 8.30
